Test results published in patent publication US12178809B2, “Pyridinyl sulfonamide derivatives, pharmaceutical compositions and uses thereof” (Boehringer Ingelheim International GmbH, priority 2018, dated 2024).
Counter-ions that a name gives are not always drawn. Like-named read-outs stand apart in the source and are kept apart here.

Key:
[1] = biological target: human AOC3 enzyme (Homo sapiens (Human), UniProt Q16853); experiment: AOC3 biochemical assay (MAO-Glo)
Description: The MAO-Glo™ Assay (commercially available from PROMEGA, #V1402) provides a sensitive method for the measurement of monoamine oxidase (MAO) activity (Valley, M. P. et al., 2006, Anal. Biochem. 359: 238-246) from a variety of tissues, biofluids or recombinant expressed or purified enzymes. As substrate a derivate of the beetle luciferin ((4S)-4,5-dihydro-2-(6-hydroxybenzothiazolyl)-4-thiazole-carboxylic acid) is used, which is oxidized at a primary amine moiety. After a spontaneous elimination and a catalyzed esterase reaction, the turnover of the luciferine by the luciferase is recorded as a signal of AOC3 activity.
An aliquot of 3 μL of the compound dilution is added to a 384 well plate (Optiplate, PS, flat bottom, white, PERKIN ELMER, #6007290) with a final DMSO concentration of 6.6%. Recombinant CHO cells, overexpressing the human (1500 cells/well), mouse (1000 cells/well) or rat (500 cells/well) AOC3 enzyme are diluted in reaction buffer and added in a volume of 15 μL to the wells. After incubation for 20 minutes at 37° C., 2 μL of MAO substrate (dissolved in DMSO at 16 mM, adjusted to assay concentration in reaction buffer to a final assay concentration of 20 μM) is added and further incubated for 60 minutes at 37° C. The turnover of the substrate is determined by the addition of 20 μL of the detection-mix which was generated by the addition of reconstitution buffer with esterase (PROMEGA, #V1402) to the luciferine detection reagent (PROMEGA, #V1402). After an incubation period of 20 minutes, the luminescent signal is measured with Envision 2104 Multilabel Reader (PERKIN ELMER).

[2] = biological target: AOC2 (Homo sapiens (Human), UniProt O75106); experiment: AOC2 biochemical assay (Amplex Red)
Experimental: An aliquot of 5 μL of the compound dilution is added to a 96 well plate (flat bottom F, black, GREINER bio-one, #655900) in a DMSO concentration of 2%. […] Cells are cultured for 3 days in EMEM culture medium containing 10% FCS (#04-00-1A, Biological Industries). After washing twice with ice cold PBS, cells are lysed by mechanic homogenation and cleared supernatants are shock frozen in liquid nitrogen and stored at -80° C. […] An Aliquot of 45 μL is added to the compound dilution and incubated for 30 min at 37° C. The enzymatic reaction is started with the addition of 50 μL of Amplex® Red reaction mix (final assay concentration: 100 mM sodiumphosphate, 120 μM Amplex® Red reagent (#A22177 Molecular Probes), 1.5 U/mL Horseradish Peroxidase (#P8375 Sigma-Aldrich), 2 mM phenylethylamine (#[…] Sigma-Aldrich), 0.05% Pluronic F-127 (#P3000MP Sigma-Aldrich), pH 7.4, 37° C.). The turnover per time of the substrate is determined directly with a fluorescence reader (Ex 540 nm/Em 590 nm) like Envision 2104 Multilabel Reader (PERKIN ELMER) for 60 min.

[3] = biological target: AOC1 (Homo sapiens (Human), UniProt P19801); experiment: AOC1 biochemical assay (Amplex Red)
Experimental: The Amplex® Red Assay (available from Thermo Fisher Scientific) provides a sensitive method for the detection of H2O2 generated during enzymatic reactions like the amine oxidation catalyzed by AOC1. The assay reagent is a colorless substrate (N-acetyl-3,7-dihydroxyphenoxazine) that reacts in a 1:1 stoichiometry with hydrogen peroxide (H2O2) to produce the fluorescent dye resorufin (7-hydroxyphenoxazin-3-one, excitation/emission maxima=570/585 nm).
An aliquot of 3 μL of the compound dilution is added to a 384 well plate (Optiplate, PS, flat bottom F, black, PERKIN ELMER, #6007270) in a DMSO concentration of 6.6%.
An AOC1 enzyme aliquot (#8297-AO-010, R&D Systems) is thawed on ice, diluted in reaction buffer and added in a volume of 7 μL to the wells to give a final assay concentration of 1 ng/well. After incubation of inhibitor and enzyme for 30 minutes at 37° C., the enzymatic reaction is started with the addition of 10 μL of Amplex® Red reaction mix (final assay concentration: 100 mM sodiumphosphate, 120 μM Amplex® Red reagent (#A22177 Molecular Probes), 1.5 U/mL Horseradish Peroxidase (#P8375 Sigma-Aldrich), 200 μM putrescine (#P7505 Sigma-Alrdich), 0.05% Pluronic F-127 (#P3000MP Sigma-Aldrich), pH 7.4, 37° C.).
After an incubation for 30 minutes at 37° C. the turnover of the substrate is determined directly (or after the addition of an excess of an amine-oxidase inhibitor) with a fluorescence reader (Ex 540 nm/Em 590 nm) like Envision 2104 Multilabel Reader (PERKIN ELMER).

[4] = comparison table, unit μM, read-out: IC50 AOC1
[5] = comparison table, read-out: IC50 AOC3
[6] = comparison table, read-out: IC50 AOC2

Sequence of AOC2 (O75106 whole entry): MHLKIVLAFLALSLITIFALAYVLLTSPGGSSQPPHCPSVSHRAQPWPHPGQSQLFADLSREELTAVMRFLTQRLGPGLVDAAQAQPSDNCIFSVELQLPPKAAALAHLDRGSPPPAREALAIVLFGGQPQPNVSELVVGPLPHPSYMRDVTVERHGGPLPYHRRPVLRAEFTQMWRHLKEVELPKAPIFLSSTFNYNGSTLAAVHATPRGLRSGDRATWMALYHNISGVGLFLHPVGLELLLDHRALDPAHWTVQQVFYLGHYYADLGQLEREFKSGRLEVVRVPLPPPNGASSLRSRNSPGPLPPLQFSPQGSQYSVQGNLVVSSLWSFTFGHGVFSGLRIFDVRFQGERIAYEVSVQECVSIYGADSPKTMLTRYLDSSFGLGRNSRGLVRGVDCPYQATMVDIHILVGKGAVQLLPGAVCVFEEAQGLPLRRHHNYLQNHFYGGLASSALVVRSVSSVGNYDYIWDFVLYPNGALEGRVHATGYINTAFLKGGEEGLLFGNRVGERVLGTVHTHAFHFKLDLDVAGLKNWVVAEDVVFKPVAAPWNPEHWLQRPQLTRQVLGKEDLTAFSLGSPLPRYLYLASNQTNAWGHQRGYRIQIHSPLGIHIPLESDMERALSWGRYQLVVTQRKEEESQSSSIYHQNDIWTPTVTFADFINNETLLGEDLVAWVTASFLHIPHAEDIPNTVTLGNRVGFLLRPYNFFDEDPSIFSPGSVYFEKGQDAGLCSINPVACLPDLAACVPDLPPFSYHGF
Sequence of AOC1 (P19801 20-751): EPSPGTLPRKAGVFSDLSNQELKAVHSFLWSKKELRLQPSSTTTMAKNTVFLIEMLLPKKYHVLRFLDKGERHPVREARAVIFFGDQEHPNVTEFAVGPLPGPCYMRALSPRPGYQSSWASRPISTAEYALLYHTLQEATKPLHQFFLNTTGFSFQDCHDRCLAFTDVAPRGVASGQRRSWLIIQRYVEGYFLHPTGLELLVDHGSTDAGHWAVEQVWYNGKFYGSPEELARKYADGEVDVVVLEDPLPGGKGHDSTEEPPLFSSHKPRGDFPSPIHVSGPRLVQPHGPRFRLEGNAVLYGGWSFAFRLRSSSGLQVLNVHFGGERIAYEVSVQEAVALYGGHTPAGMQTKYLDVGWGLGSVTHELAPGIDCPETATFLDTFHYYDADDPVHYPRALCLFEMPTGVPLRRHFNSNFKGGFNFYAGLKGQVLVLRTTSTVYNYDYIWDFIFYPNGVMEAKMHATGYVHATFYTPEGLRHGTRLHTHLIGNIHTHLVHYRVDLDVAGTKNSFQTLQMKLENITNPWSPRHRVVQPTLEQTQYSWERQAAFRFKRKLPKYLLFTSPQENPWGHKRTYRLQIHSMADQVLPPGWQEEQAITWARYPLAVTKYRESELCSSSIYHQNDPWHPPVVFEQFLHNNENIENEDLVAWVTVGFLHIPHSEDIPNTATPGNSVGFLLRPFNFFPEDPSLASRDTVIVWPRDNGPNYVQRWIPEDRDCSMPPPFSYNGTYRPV
Sequence of human AOC3 enzyme (Q16853 whole entry): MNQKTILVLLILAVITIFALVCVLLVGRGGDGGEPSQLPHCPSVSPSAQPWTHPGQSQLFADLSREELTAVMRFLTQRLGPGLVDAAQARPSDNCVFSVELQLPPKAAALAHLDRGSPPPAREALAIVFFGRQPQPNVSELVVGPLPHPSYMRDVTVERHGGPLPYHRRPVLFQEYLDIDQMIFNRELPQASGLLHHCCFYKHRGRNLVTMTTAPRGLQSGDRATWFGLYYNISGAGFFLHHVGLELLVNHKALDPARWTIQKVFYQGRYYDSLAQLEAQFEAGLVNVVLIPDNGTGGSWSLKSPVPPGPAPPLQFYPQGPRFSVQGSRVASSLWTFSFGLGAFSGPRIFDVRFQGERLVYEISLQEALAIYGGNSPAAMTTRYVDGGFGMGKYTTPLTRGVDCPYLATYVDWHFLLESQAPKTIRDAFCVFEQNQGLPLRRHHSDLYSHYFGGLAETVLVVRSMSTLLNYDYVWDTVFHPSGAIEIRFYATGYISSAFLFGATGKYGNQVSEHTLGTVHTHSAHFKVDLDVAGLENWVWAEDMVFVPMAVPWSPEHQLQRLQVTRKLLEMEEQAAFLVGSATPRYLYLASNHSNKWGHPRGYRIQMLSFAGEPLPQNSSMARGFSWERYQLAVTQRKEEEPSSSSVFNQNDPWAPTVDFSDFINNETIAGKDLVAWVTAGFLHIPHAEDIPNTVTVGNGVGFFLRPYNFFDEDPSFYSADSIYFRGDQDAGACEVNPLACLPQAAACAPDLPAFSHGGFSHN

Structure (SMILES)	IC50 ([1]; read-out: AOC3 IC50) [nM]	IC50 ([2]; read-out: AOC2 IC50) [nM]	IC50 ([3]; read-out: AOC1 IC50) [µM]	fold less active against AOC2 as compared to AOC3 (ratio IC50 AOC2/IC50 AOC3) [2]	IC50 [3, 4] [µM]	IC50 [1, 5] [nM]	IC50 [2, 6] [nM]	IC50 ([3]; comparison table, read-out: IC50 AOC1) [µM]
CN(C)C(=O)C1CN(S(=O)(=O)c2ccc(OC/C(=C/F)CN)nc2)C1 [Example 28]	42	158	> 49.9					
NC/C(=C\F)COc1ccc(S(=O)(=O)N2C[C@H]3C[C@@]3(C(=O)N3CCOCC3)C2)cn1 [Example 30]	46	126	11.4					
NC/C(=C\F)COc1ccc(S(=O)(=O)N2CC(C(N)=O)C2)cn1 [Example 31]	21	121	> 50					
NC/C(=C\F)COc1ccc(S(=O)(=O)N2CC(C3CCN(C(=O)C4CC4)CC3)C2)cn1 [Example 32]	17	73	39.5					
NC/C(=C\F)COc1ccc(S(=O)(=O)N2CC[C@H](O)C2)cn1 [Example 35, (S)-1-[6-((E)-2-Aminomethyl-3-fluoro-allyloxy)-pyridine-3-sulfonyl]-pyrrolidin-3-ol]	38	207	> 50	ca. 5 fold	> 50			
NC/C(=C\F)COc1ccc(S(=O)(=O)N2CC[C@@H](O)C2)cn1 [Example 36]	67	551	> 50					
NC/C(=C\F)COc1ccc(S(=O)(=O)N2CCC2)cn1 [Example 39]	19	262	17					
COC1CCN(S(=O)(=O)c2ccc(OC/C(=C/F)CN)nc2)C1.O=C(O)C(F)(F)F (stereo not shown) [Example 40]	26	125	> 50	ca. 5 fold	> 50	26	125	
COC1CN(S(=O)(=O)c2ccc(OC/C(=C/F)CN)nc2)C1 [Example 42]	20	87	> 50			20	87	> 50
CC1(O)CCN(S(=O)(=O)c2ccc(OC/C(=C/F)CN)nc2)CC1 [Example 48]	24	67	1.49					

The next molecules have a lower IC50 ([1]; read-out: AOC3 IC50) than those just listed; values first:

IC50 ([1]; read-out: AOC3 IC50) [nM]	IC50 ([2]; read-out: AOC2 IC50) [nM]	IC50 ([3]; read-out: AOC1 IC50) [µM]	fold less active against AOC2 as compared to AOC3 (ratio IC50 AOC2/IC50 AOC3) [2]	IC50 [3, 4] [µM]	IC50 [1, 5] [nM]	IC50 [2, 6] [nM]	IC50 ([3]; comparison table, read-out: IC50 AOC1) [µM]	Structure (SMILES)
15	49	33						NC/C(=C\F)COc1ccc(S(=O)(=O)N2CC[C@@H](C(N)=O)C2)cn1 [Example 33]
14	14	15.8						CCNC(=O)C1(C)CCN(S(=O)(=O)c2ccc(OC/C(=C/F)CN)nc2)CC1 [Example 34]
15	451	22.6						NC/C(=C\F)COc1ccc(S(=O)(=O)N2CC(F)(F)C2)cn1 [Example 37]
13	278	> 50						NC/C(=C\F)COc1ccc(S(=O)(=O)N2CCCC2)cn1 [Example 38]
5	123	25.4						NC/C(=C\F)COc1ccc(S(=O)(=O)N2CC3CC3C2)cn1 (stereo not shown) [Example 41]
16	69	36.5						NC/C(=C\F)COc1ccc(S(=O)(=O)N2CCC(F)(F)C2)cn1 [Example 43]
14	574	> 50						CNC(=O)C1CCN(S(=O)(=O)c2ccc(OC/C(=C/F)CN)nc2)CC1 [Example 44, 1-[6-((E)-2-Aminomethyl-3-fluoro-allyloxy)-pyridine-3-sulfonyl]-piperidine-4-carboxylic acid methylamide trifluoroacetate]
10	307	11.4	ca. 30 fold					NC/C(=C\F)COc1ccc(S(=O)(=O)N2CCC(O)CC2)cn1.O=C(O)C(F)(F)F [Example 45]
10	234	> 50						COC1CCN(S(=O)(=O)c2ccc(OC/C(=C/F)CN)nc2)CC1 [Example 46]
5	144	23.2						NC/C(=C\F)COc1ccc(S(=O)(=O)N2CCCCC2)cn1 [Example 47]
